Patent US20220024945A1, “THERAPEUTIC COMPOUNDS AND COMPOSITIONS, AND METHODS OF USE THEREOF” (Genentech, Inc., priority 2017, published 2022)

Experiments:
[1] = target: isolated recombinant JAK1 kinase domain (Homo sapiens, UniProt P23458); experiment: JAK enzyme assay (Caliper LabChip), JAK1 kinase domain; assay type: biochemical; details: ATP 25 μM; 1.5 nM JAK1; Morrison tight binding model
[2] = tested on: JAK1-dependent STAT6 phosphorylation downstream of IL-13 stimulation, BEAS-2B cells; experiment: JAK1 pathway assay in cell lines: P-STAT6 in BEAS-2B cells + IL13; assay type: cell-based; details: Homo sapiens, BEAS-2B, 1 h, BEAS-2B human bronchial epithelial cells, 1 hr compound preincubation, read-out: P-STAT6 BEAS2B + IL13 IC50
Method in brief: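 BEAS-2B human bronchial epithelial cells in complete growth medium, preincubated with compound for 1 hr at 37 °C (0.2% DMSO). Stimulation with IL-13 at EC90 for 15 min at 37 °C. Phospho-STAT6 measured in lysates by MSD; EC50 is the concentration giving 50% inhibition versus DMSO control.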

[3] = target: isolated recombinant JAK2 kinase domain (Homo sapiens, UniProt O60674); experiment: JAK enzyme assay (Caliper LabChip), JAK2 kinase domain; details: ATP 25 μM, 0.2 nM JAK2, Morrison tight binding model
Sequence of isolated recombinant JAK2 kinase domain (O60674 849-1124 limits assumed): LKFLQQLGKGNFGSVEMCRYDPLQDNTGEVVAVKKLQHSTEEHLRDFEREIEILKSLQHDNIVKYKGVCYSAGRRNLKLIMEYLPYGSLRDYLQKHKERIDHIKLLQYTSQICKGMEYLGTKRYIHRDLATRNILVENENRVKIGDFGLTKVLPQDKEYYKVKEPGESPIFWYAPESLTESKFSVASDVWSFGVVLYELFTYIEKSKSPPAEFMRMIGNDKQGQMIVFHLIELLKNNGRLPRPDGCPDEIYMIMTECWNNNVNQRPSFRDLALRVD
Procedure: JAK Enzyme Assays were Carried Out as Follows:
The activity of the isolated recombinant JAK1 and JAK2 kinase domain was measured by monitoring phosphorylation of a peptide derived from JAK3 ([sequence] fluorescently labeled on the N-terminus with 5-carboxyfluorescein) using the Caliper LabChip® technology (Caliper Life Sciences, Hopkinton, Mass.). […] Reactions were incubated at 22° C. in 384-well polypropylene microtiter plates for 30 minutes and then stopped by addition of 25 μL of an EDTA containing solution (100 mM HEPES buffer (pH 7.2), 0.015% Brij-35, 150 mM EDTA), resulting in a final EDTA concentration of 50 mM. After termination of the kinase reaction, the proportion of phosphorylated product was determined as a fraction of total peptide substrate using the Caliper LabChip® 3000 according to the manufacturer's specifications.

Sequence of isolated recombinant JAK1 kinase domain (P23458 875-1153 limits assumed): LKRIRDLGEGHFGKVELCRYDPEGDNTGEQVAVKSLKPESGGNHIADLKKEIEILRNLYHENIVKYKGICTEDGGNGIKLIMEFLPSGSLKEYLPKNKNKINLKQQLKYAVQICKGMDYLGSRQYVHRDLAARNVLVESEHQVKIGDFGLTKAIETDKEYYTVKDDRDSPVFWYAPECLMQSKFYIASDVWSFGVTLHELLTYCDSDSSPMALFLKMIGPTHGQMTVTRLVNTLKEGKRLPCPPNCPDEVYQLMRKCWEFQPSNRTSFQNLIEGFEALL

Row | Structure (SMILES) | Ki [1] [nM] | IC50 [2] [nM] | Ki [3] [nM]
1 | O=C(Nc1cn(C2CN(C3COC3)C2)nc1-c1cc(SC2COC2)ccc1OC(F)F)c1cnn2cccnc12 [Example 35, N-[3-[2-(difluoromethoxy)-5-(oxetan-3-ylsulfanyl)phenyl]-1-[1-(oxetan-3-yl)azetidin-3-yl]pyrazol-4-yl]pyrazolo[1,5-a]pyrimidine-3-carboxamide] | 1.14 | 42 | 0.9
2 | O=C(Nc1cn(CC(=O)N2CCC(N3CCOCC3)CC2)nc1-c1cc(SC(F)F)ccc1OC(F)F)c1cnn2cccnc12 [Example 42, N-[3-[2-(difluoromethoxy)-5-(difluoromethylsulfanyl)phenyl]-1-[2-(4-morpholino-1-piperidyl)-2-oxo-ethyl]pyrazol-4-yl]pyrazolo[1,5-a]pyrimidine-3-carboxamide] | 0.34 | 23 | 0.72
3 | COC(=O)CSc1ccc(OC(F)F)c(-c2n[nH]cc2NC(=O)c2cnn3cccnc23)c1 [Example 43, methyl 2-[4-(difluoromethoxy)-3-[4-(pyrazolo[1,5-a]pyrimidine-3-carbonylamino)-1H-pyrazol-3-yl]phenyl]sulfanylacetate] | 0.32 | 37 | 0.15
4 | CSc1ccc(OC(F)F)c(-c2nn(CC(=O)N(C)C)cc2NC(=O)c2cnn3cccnc23)c1 [Example 44] | 0.17 | 10 | 0.24
5 | CNC(=O)Cn1cc(NC(=O)c2cnn3cccnc23)c(-c2cc(SC)ccc2OC(F)F)n1 [Example 45, N-[3-[2-(difluoromethoxy)-5-methylsulfanyl-phenyl]-1-[2-(methylamino)-2-oxo-ethyl]pyrazol-4-yl]pyrazolo[1,5-a]pyrimidine-3-carboxamide] | 0.21 | 8 | 0.21
6 | C[C@H](O)Cn1cc(Sc2ccc(OC(F)F)c(-c3nn(CC(=O)N(C)C)cc3NC(=O)c3cnn4cccnc34)c2)cn1 [Example 46, (S)-N-(3-(2-(difluoromethoxy)-5-((1-(2-hydroxypropyl)-1H-pyrazol-4-yl)thio)phenyl)-1-(2-(dimethylamino)-2-oxoethyl)-1H-pyrazol-4-yl)pyrazolo[1,5-a]pyrimidine-3-carboxamide] | 1.24 | 223 | 1.28
7 | CN(C)C(=O)Cn1cc(NC(=O)c2cnn3cccnc23)c(-c2cc(SCC(F)(F)F)ccc2OC(F)F)n1 [Example 47, N-(3-(2-(difluoromethoxy)-5-((2,2,2-trifluoroethyl)thio)phenyl)-1-(2-(dimethylamino)-2-oxoethyl)-1H-pyrazol-4-yl)pyrazolo[1,5-a]pyrimidine-3-carboxamide] | 0.18 | 15 | 0.78
8 | CN(C)C(=O)Cn1cc(NC(=O)c2cnn3cccnc23)c(-c2cc([S+](C)[O-])ccc2OC(F)F)n1 (stereo not drawn) [Example 48, N-(3-(2-(difluoromethoxy)-5-(methylsulfinyl)phenyl)-1-(2-(dimethylamino)-2-oxoethyl)-1H-pyrazol-4-yl)pyrazolo[1,5-a]pyrimidine-3-carboxamide] | 1.35 | 518 | 4.44
9 | CN(C)C(=O)Cn1cc(NC(=O)c2cnn3cccnc23)c(-c2cc(S(C)(=O)=O)ccc2OC(F)F)n1 [Example 49, N-(3-(2-(difluoromethoxy)-5-(methylsulfonyl)phenyl)-1-(2-(dimethylamino)-2-oxoethyl)-1H-pyrazol-4-yl)pyrazolo[1,5-a]pyrimidine-3-carboxamide] | 0.45 | 214 | 0.79
10 | CN(C)C(=O)Cn1cc(NC(=O)c2cnn3cccnc23)c(-c2cc(S(=O)(=O)C(F)F)ccc2OC(F)F)n1 [Example 50, N-(3-(2-(difluoromethoxy)-5-((difluoromethyl)sulfonyl)phenyl)-1-(2-(dimethylamino)-2-oxoethyl)-1H-pyrazol-4-yl)pyrazolo[1,5-a]pyrimidine-3-carboxamide] | 0.3 | 38 | 0.56
